Data as given in patent US20130303460A1, “PEPTIDES AND COMPOSITIONS FOR THE TREATMENT OF NEUROECTODERMAL DERIVED TUMORS AND RETINOBLASTOMA” (Biokine Therapeutics Ltd., priority 2011, published 2013).

Legend:
[1] = tested on: Neuroblastoma tumor cells injected into the adrenal; experiment: Neuroblastoma tumor growth in mice, residual disease model; type: in vivo, NOD/SCID mice; settings: 300 μg per mouse from day 3 until day 30 after inoculation; residual disease model (FIG. 7)
Method: (§1) NOD/SCID mice were maintained under defined flora conditions at the Hebrew University Pathogen-Free Animal Facility. All experiments were approved by the Animal Care Committee of the Hebrew University. 10^6 Neuroblastoma tumor cells were injected into the adrenal of the mice ([…] per mouse). As control, mice were treated with PBS. Tumor growth was monitored weekly. MRI testing was performed on a horizontal 4.7 T Bruker Biospec spectrometer, using a birdcage coil.

[2] = tested on: Neuroblastoma cancer cell lines (SHY-5Y, SK-N-BE and NHH-NB-11); experiment: Neuroblastoma cell death, PI+ cells by FACS and morphological assays; type: cell-based, human; settings: 1% FCS, twenty hr, SK-N-BE and NHH-NB-11 (FIGS. 5, 6)
Method: The effect of BKT140 or AMD3100 on the proliferation of neuroblastoma cancer cell lines was tested by seeding the cells at 2×10^4 cells/1 ml per well into a 24-well plate in medium supplemented with 1% FCS. Twenty hr later the cells stained with PI (Sigma, St. Louis, Mo.), and the number of PI+cells (death cells) was determined using FACS analysis (as described above) (see, FIG. 6A).

[3] = tested on: epithelial tumor cells (e.g., breast and prostate carcinoma and glioblastoma); experiment: Effect on epithelial tumor cells; type: cell-based; settings: summary statement, example not given
[4] = tested on: Neuroblastoma cancer cell lines (SHY-5Y, SK-N-BE and NHH-NB-11); experiment: Neuroblastoma cell viability, CellTiter 96 AQueous Non-Radioactive Cell Proliferation Assay; type: cell-based, human; settings: 72 hours, 10% FCS; compared to other CXCR4 antagonists (e.g. AMD3100) (FIG. 4)
Method: Neuroblastoma cancer cell lines (SHY-5Y, SK-N-BE and NHH-NB-11, FIGS. 4A, 4B, and 4C, respectively) were seeded at 2×10^4 viable cells/100 μl per well into a 96-well plate in triplicates in a medium supplemented with 10% FCS and incubated with different concentrations of BKT140, PLK1, AurA or AMD3100 for 72 hours. The plate was than tested for cell viability using the CellTiter 96® AQueous Non-Radioactive Cell Proliferation Assay.

Y79 Retinoblastoma cells = experiment: Survival of Y79 retinoblastoma cells (PI staining, FACS); type: cell-based, human; settings: 4, 8, 20 and 40 micromolar, 24 hr; PI staining FACS (FIG. 3)
Method: Y79: Retinoblastoma cells from primary tumor with familial history of Retinoblastoma;
All cell lines were cultured in RPMI1640 (Gibco BRL life technologies)+10% FCS, 1% L-Glutamine, 1% PS (Penicillin, Streptomycin) (Biological Industries, Kibbutz Beth Haemek, Israel) at 37° C., 5% CO2.
4F-benzoyl-TN14003 (designated BKT140) effect on Y79 Retinoblastoma cells survival.

[5] = tested on: Neuroblastoma tumor cells injected into the adrenal; experiment: Neuroblastoma tumor growth in mice, established (treatment) disease model; type: in vivo, NOD/SCID mice; settings: subcutaneously 300 μg per mouse until day 30, started when tumor size reached ~0.04 cm^2 (FIG. 8)
Method: as §1

“4F-benzoyl-Arg-Arg-Nal-Cys-Tyr-Cit-Lys-DLys-Pro-Tyr-Arg-Cit-Cys-Arg-NH2 [4F-benzoyl-TN14003]” was tested, and the tumor growth [1] was “delayed and in some cases inhibited tumor growth”, the “neuroblastoma cell death (PI+ cells)” value [2] was “stimulate neuroblastoma cell death” and the “growth of epithelial tumor cells” value ([3]; breast and prostate carcinoma and glioblastoma) was “in some cases even stimulated the growth of epithelial tumor cells”. The “epithelial tumor cell death” value [3] was “did not induce epithelial tumor cell death”, the “cell viability of neuroblastoma cells” value [4] was “remarkably low cell viability” and the “cell death / survival of Y79 retinoblastoma cells” value (Y79 Retinoblastoma cells) was “stimulate cell death of retinoblastoma cells”. For the same substance, the tumor growth [5] was “delayed and in some cases inhibited tumor growth”.
